# Experimental data: US20110028405A1, “SULFAMIDES AS ZAP-70 INHIBITORS” (priority 2007, published 2011)
# Key:
# Jurkat cells = assay: Calcium release assay (Fluo-4, flow cytometry, anti-CD3 stimulation); format: cell-based; conditions: Homo sapiens; intracellular Ca2+ release in Jurkat cells after anti-CD3 activation
# Method: Compounds of the present invention were tested in a Calcium release assay as described below.
# The development of fluorescent probes makes it possible to measure the concentration of intracellular free Calcium ions in single living cells. Cells are first loaded with a cell-permeable Ca^2+-sensitive dye, then the test compound is added. Finally, cells are activated through the T cell receptor with an anti-CD3 antibody shortly before data acquisition on the flow cytometer. The release of Ca^2+ is measured as a function of time after cell stimulation. This protocol describes the flow cytometry method using the Fluo-3 and Fluo-4 dyes (Minta et al., 1989, J. Biol. Chem. 264(14):8171-8178) to measure the intracellular Ca^2+ concentration in Jurkat cells (see also June et al., 1997, Measurement of intracellular calcium ions by flow cytometry. In: Current Protocols in Cytometry (1997) Unit 9.8.1-9.8.19, John Wiley & Sons, Inc.).
# 1) Prepare a work plan indicating the number of samples to be analyzed including controls. 2) Cell harvest: Centrifuge 50 to 100 ml of a Jurkat cell culture for 5 minutes at 1100 rpm. Discard the supernatant, pool the resuspended cell pellets in a single 50 ml Falcon tube, and fill up to 50 ml with PBS-CaCl2 (without FCS). Centrifuge again sample again. 3) Resuspend cell pellet with PBS-CaCl2 (without FCS) to achieve a concentration not lower than 10×10^6 cells/ml. Prepare an adequate dilution to evaluate the cell concentration and count the cells. 4) Separate the volume of cells needed to be loaded (for example […] for 20 samples) in a 50 ml Falcon tube. Fill up with PBS-CaCl2 to 900 μl for 107 cells. 5) Prepare in the dark a 1:1 mix of FLUO-4 (1 mM)+Pluronic F-127 (20%). 5 μl of Fluo-4 are needed per 107 cells. 6) Prepare a 1/10 dilution of this mix with PBS-CaCl2 (in the dark; for example 5 μl Fluo-4+5 μl F-127 completed to 100 μl). 7) Add the dye solution to the cells. […] 8) Incubate the sample for 30 minutes in a cell incubator (37° C., 5% CO2). Mix from time to time. 9) During this time prepare the adequate test compound dilution in PBS-CaCl2 (with 10% FCS). The solution should be 10 times more concentrated than the desired final concentration. Vortex each dilution. Prepare also the antibody dilutions: anti-CD3 (1/200) and GAM (1/25). 10) Label FACS tubes and distribute in the corresponding tube 30 μl of the compound dilution or only buffer for the control tubes. 11) After 30 minutes of incubation wash the cells twice in PBS-CaCl2 (with 10% FCS). During the washing steps make sure that the flow cytometer is already “ON” in order to warm the laser. 12) Resuspend the cell pellet in PBS-CaCl2 (with 10% FCS) at a concentration of 1.5×10^6 cells/ml. 13) Distribute 300 μl of cell suspension into the FACS tubes and mix gently. The compound incubation is starting. Keep samples at room temperature in the dark. 14) Open the settings of the cytometer. It is advised to have a template ready which is used for all measurements. Settings of the machine should also be the same from one experiment to the other which permits to evaluate the reproducibility of the cell preparation. 15) In Setup modus control your cell preparation on the cytometer. Cells should fit in the pre-defined gates. 16) During the compound incubation time, check also that cells are responding to the anti-CD3 activation as expected. Set a timer at 8 sec. Add 6 μl of anti-CD3 dilution (0.2 μg/ml final) and mix gently. Add 1 μl of GAM dilution (0.75 μg/ml final) and mix gently. Incubate the samples in water bath at 37° C. while starting timer. After 8 seconds of incubation, acquire data at medium speed for 200 seconds. A clear increase of fluorescence should appear after 1 minute. 17) Make sure that the cells rest and equilibrate at room temperature 15 minutes before FACS data acquisition 18) Data acquisition: Samples to be compared should be measured consecutively. 19) For a better reproducibility, make sure that data for the loaded cells are acquired within 2 hours. […]
# ZAP-70 = biological target: T1, ZAP-70 (Homo sapiens, UniProt P43403); assay: ZAP-70 kinobeads assay; format: binding; conditions: cell lysate, dot blot detection
# T1 construct: endogenous in cells; host or cells: cell lysate
# T1 sequence (P43403 1-619): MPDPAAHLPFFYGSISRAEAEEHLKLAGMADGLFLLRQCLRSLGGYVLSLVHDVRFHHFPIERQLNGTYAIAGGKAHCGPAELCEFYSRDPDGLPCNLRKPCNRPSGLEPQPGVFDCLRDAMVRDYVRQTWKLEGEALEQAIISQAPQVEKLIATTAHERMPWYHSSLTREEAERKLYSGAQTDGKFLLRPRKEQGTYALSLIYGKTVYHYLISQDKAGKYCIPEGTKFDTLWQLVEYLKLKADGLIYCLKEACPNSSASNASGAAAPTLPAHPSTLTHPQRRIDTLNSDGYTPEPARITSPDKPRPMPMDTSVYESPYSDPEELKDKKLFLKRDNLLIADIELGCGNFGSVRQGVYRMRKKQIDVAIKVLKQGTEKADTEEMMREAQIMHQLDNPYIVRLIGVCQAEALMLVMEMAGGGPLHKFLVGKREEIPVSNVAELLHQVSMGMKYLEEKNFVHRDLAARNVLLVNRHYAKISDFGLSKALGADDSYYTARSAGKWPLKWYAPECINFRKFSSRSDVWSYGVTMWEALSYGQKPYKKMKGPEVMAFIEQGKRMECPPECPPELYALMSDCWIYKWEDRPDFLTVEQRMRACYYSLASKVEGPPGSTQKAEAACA
# Method: The compounds of the present invention as described in the previous examples can be tested in the ZAP-70 kinobeads assay as described (EP-A 1862802 and WO-A 2007/137867). Briefly, test compounds (at various concentrations) and the affinity matrix with the immobilized aminopyrido-pyrimidine ligand 24 are added to cell lysate aliquots and allowed to bind to the proteins in the lysate sample. After the incubation time the beads with captured proteins are separated from the lysate. Bound proteins are then eluted and the presence ZAP-70 is detected and quantified using a specific antibody in a dot blot procedure and the Odyssey infrared detection system.
Structure (SMILES),IC50 (Jurkat cells),IC50 (ZAP-70)
"COc1cc(Nc2ncc(F)c(Nc3cc(F)ccc3NS(N)(=O)=O)n2)cc(OC)c1OC [Example 37, N-(4-fluoro-2-(5-fluoro-2-(3,4,5-trimethoxyphenylamino)pyrimidin-4-ylamino)phenyl)sulfamide]",< 1 µM,< 1 µM
"COc1cc(Nc2ncc(F)c(Nc3ccc(C)c(C)c3NS(N)(=O)=O)n2)cc(OC)c1OC [Example 31, N-(6-(5-fluoro-2-(3,4,5-trimethoxyphenylamino)pyrimidin-4-ylamino)-2,3-dimethylphenyl)sulfamide]",< 1 µM,< 1 µM
"COc1cc(Nc2ncc(F)c(Nc3ccc(C)cc3NS(N)(=O)=O)n2)cc(OC)c1OC [Example 34, N-(2-(5-Fluoro-2-(3,4,5-trimethoxyphenylamino)pyrimidin-4-ylamino)-5-methylphenyl)sulfamide]",< 1 µM,< 1 µM

# Second part, the compound after the results:
IC50 (Jurkat cells),IC50 (ZAP-70),Structure (SMILES)
< 1 µM,< 1 µM,"COc1cc(Nc2nccc(Nc3ccccc3NS(N)(=O)=O)n2)cc(OC)c1OC [Example 23, N-(2-(2-(3,4,5-trimethoxyphenylamino)pyrimidin-4-ylamino)phenyl)sulfamide]"
< 0.1 µM,< 0.1 µM,"COc1cc(Nc2ncc(F)c(Nc3ccccc3NS(N)(=O)=O)n2)cc(OC)c1OC [Example 10, N-(2-(5-fluoro-2-(3,4,5-trimethoxyphenylamino)pyrimidin-4-ylamino)phenyl)sulfamide]"
< 0.1 µM,< 0.1 µM,"COc1cccc(Nc2nc(Nc3cc(OC)c(OC)c(OC)c3)ncc2F)c1NS(N)(=O)=O [Example 32, N-(2-(5-fluoro-2-(3,4,5-trimethoxyphenylamino)pyrimidin-4-ylamino)-6-methoxyphenyl)sulfamide]"
< 0.1 µM,< 1 µM,"COc1ccc(Nc2ncc(Br)c(Nc3ccccc3NS(N)(=O)=O)n2)cc1 [Example 26, N-(2-(5-bromo-2-(4-methoxyamino)pyrimidin-4-ylamino)phenyl)sulfamide]"
